# Test results from BindingDB's records for doi:10.1016/s0960-894x(99)00552-1 (Smithkline Beecham Pharmaceuticals, 1999).
# Experiment: Inhibitory activity against IgE receptor
row,IC50 [nM],SMILES
1,220,"NC(=O)[C@H](Cc1ccccc1)NC(=O)[C@H](Cc1ccc2cc(F)ccc2c1)[C@H](O)C(=O)NO [(2R,3S)-N*1*-((S)-1-Carbamoyl-2-phenyl-ethyl)-2-(6-fluoro-naphthalen-2-ylmethyl)-3,N*4*-dihydroxy-succinamide]"
2,230,"CNC(=O)[C@@H](NC(=O)[C@H](Cc1ccc2ccccc2c1)[C@H](O)C(=O)NO)C(C)(C)C [(2R,3S)-N*4*-((S)-2,2-Dimethyl-1-methylcarbamoyl-propyl)-2,N*1*-dihydroxy-3-naphthalen-2-ylmethyl-succinamide]"
3,100,"CNC(=O)[C@H](Cc1ccccc1)NC(=O)[C@H](Cc1cc2ccccc2o1)[C@H](O)C(=O)NO [(2R,3S)-2-Benzofuran-2-ylmethyl-3,N*4*-dihydroxy-N*1*-((S)-1-methylcarbamoyl-2-phenyl-ethyl)-succinamide]"
4,20,"NC(=O)[C@H](Cc1ccccc1)NC(=O)[C@H](Cc1cc2ccccc2s1)[C@H](O)C(=O)NO [(2R,3S)-2-Benzo[b]thiophen-2-ylmethyl-N*1*-((S)-1-carbamoyl-2-phenyl-ethyl)-3,N*4*-dihydroxy-succinamide]"
5,80,"CC(C)(C)[C@H](NC(=O)[C@H](Cc1ccc2ccc(F)cc2c1)[C@H](O)C(=O)NO)C(N)=O [(2R,3S)-N*1*-((S)-1-Carbamoyl-2,2-dimethyl-propyl)-2-(7-fluoro-naphthalen-2-ylmethyl)-3,N*4*-dihydroxy-succinamide]"
6,> 10000,"CNC(=O)[C@@H](NC(=O)[C@H](Cc1ccc2c(c1)CCCC2)[C@H](O)C(=O)NO)C(C)(C)C [(2R,3S)-N*4*-((S)-2,2-Dimethyl-1-methylcarbamoyl-propyl)-2,N*1*-dihydroxy-3-(5,6,7,8-tetrahydro-naphthalen-2-ylmethyl)-succinamide]"
7,1000,O=C(C[C@@H](Cc1ccc2ccccc2c1)C(=O)N[C@@H](Cc1ccccc1)C(=O)NCc1ccccc1)NO [(R)-N*1*-((S)-1-Benzylcarbamoyl-2-phenyl-ethyl)-N*4*-hydroxy-2-naphthalen-2-ylmethyl-succinamide]
8,600,"NC(=O)[C@H](Cc1ccccc1)NC(=O)[C@H](Cc1ccc2ccccc2c1)[C@H](O)C(=O)NO [(2R,3S)-N*4*-((S)-1-Carbamoyl-2-phenyl-ethyl)-2,N*1*-dihydroxy-3-naphthalen-2-ylmethyl-succinamide]"
9,100,"NC(=O)[C@H](Cc1ccccc1)NC(=O)[C@H](Cc1ccc2ccc(F)cc2c1)[C@H](O)C(=O)NO [(2R,3S)-N*1*-((S)-1-Carbamoyl-2-phenyl-ethyl)-2-(7-fluoro-naphthalen-2-ylmethyl)-3,N*4*-dihydroxy-succinamide]"
10,20,"CC(C)(C)[C@H](NC(=O)[C@H](Cc1ccc2ccccc2c1)[C@H](O)C(=O)NO)C(N)=O [(2R,3S)-N*4*-((S)-1-Carbamoyl-2,2-dimethyl-propyl)-2,N*1*-dihydroxy-3-naphthalen-2-ylmethyl-succinamide]"
11,> 10000,"NC(=O)[C@H](Cc1ccccc1)NC(=O)[C@H](Cc1sc2ccccc2c1Cl)[C@H](O)C(=O)NO [(2R,3S)-N*1*-((S)-1-Carbamoyl-2-phenyl-ethyl)-2-(3-chloro-benzo[b]thiophen-2-ylmethyl)-3,N*4*-dihydroxy-succinamide]"
12,400,"CNC(=O)[C@H](Cc1ccccc1)NC(=O)[C@H](Cc1ccc2ccccc2c1)[C@H](O)C(=O)NO [(2R,3S)-2,N*1*-Dihydroxy-N*4*-((S)-1-methylcarbamoyl-2-phenyl-ethyl)-3-naphthalen-2-ylmethyl-succinamide]"
13,> 1000,"CNC(=O)[C@H](Cc1ccccc1)NC(=O)[C@H](Cc1csc2ccccc12)[C@H](O)C(=O)NO [(2R,3S)-2-Benzo[b]thiophen-3-ylmethyl-3,N*4*-dihydroxy-N*1*-((S)-1-methylcarbamoyl-2-phenyl-ethyl)-succinamide]"
14,1000,"CC(C)(C)[C@H](NC(=O)[C@H](Cc1ccc2ncccc2c1)[C@H](O)C(=O)NO)C(N)=O [(2R,3S)-N*4*-((S)-1-Carbamoyl-2,2-dimethyl-propyl)-2,N*1*-dihydroxy-3-quinolin-6-ylmethyl-succinamide]"
15,20,"CC(C)(C)[C@H](NC(=O)[C@H](Cc1cnc2ccccc2c1)[C@H](O)C(=O)NO)C(N)=O [(2R,3S)-N*4*-((S)-1-Carbamoyl-2,2-dimethyl-propyl)-2,N*1*-dihydroxy-3-quinolin-3-ylmethyl-succinamide]"
16,760,"NC(=O)[C@H](Cc1ccccc1)NC(=O)[C@H](Cc1ccc2ccc(O)cc2c1)[C@H](O)C(=O)NO [(2R,3S)-N*4*-((S)-1-Carbamoyl-2-phenyl-ethyl)-2,N*1*-dihydroxy-3-(7-hydroxy-naphthalen-2-ylmethyl)-succinamide]"
17,70,CC(C)(C)[C@H](NC(=O)C(C[C@H]1CCc2ccccc2C1)[C@H](O)C(=O)NO)C(N)=O (some centres not stated)
18,320,"NC(=O)[C@H](Cc1ccccc1)NC(=O)[C@H](Cc1nc2ccccc2s1)[C@H](O)C(=O)NO [(2R,3S)-2-Benzothiazol-2-ylmethyl-N*1*-((S)-1-carbamoyl-2-phenyl-ethyl)-3,N*4*-dihydroxy-succinamide]"
19,> 20000,"NC(=O)[C@H](Cc1ccccc1)NC(=O)[C@H](Cc1ccc2ccc(OCc3ccccc3)cc2c1)[C@H](O)C(=O)NO [(2R,3S)-2-(7-Benzyloxy-naphthalen-2-ylmethyl)-N*1*-((S)-1-carbamoyl-2-phenyl-ethyl)-3,N*4*-dihydroxy-succinamide]"
20,> 20000,"CNC(=O)[C@H](Cc1ccccc1)NC(=O)[C@H](Cc1cc2cccc(OC)c2o1)[C@H](O)C(=O)NO [(2R,3S)-2,N*1*-Dihydroxy-3-(7-methoxy-benzofuran-2-ylmethyl)-N*4*-((S)-1-methylcarbamoyl-2-phenyl-ethyl)-succinamide]"
21,70,CC(C)(C)[C@H](NC(=O)C(C[C@@H]1CCc2ccccc2C1)[C@H](O)C(=O)NO)C(N)=O (some centres not stated)
22,> 1000,"CC(C)(C)[C@H](NC(=O)[C@H](Cc1ccc2cc(F)c(F)cc2c1)[C@H](O)C(=O)NO)C(N)=O [(2R,3S)-N*1*-((S)-1-Carbamoyl-2,2-dimethyl-propyl)-2-(6,7-difluoro-naphthalen-2-ylmethyl)-3,N*4*-dihydroxy-succinamide]"
